Tests used:
[1] = test system: murine thymocyte; test: thymocyte proliferation stimulated by ConA and IL-1α; format: cell-based, murine (female Balb/C mice); details: ConA 0.25 μg/ml, IL-1α 12.5 ng/ml; drug 2 h prior
Procedure: A thymocyte costimulator assay is conducted to evaluate the inventive compounds to inhibit activation and proliferation of thymocytes caused by stimulation with Con A and interleukin-1 (IL-1), or […]. Thymuses are obtained from mice (e.g., female Balb/C mice) and the thymuses are removed and dissociated into culture media (e.g., RPMI 1640 without serum supplementation). The dissociated thymus tissue and cell suspension is transferred to centrifuge tubes and allowed to settle, washed with HBSS and resuspended in serum-supplemented culture media (e.g., RPMI 1640 with 10% fetal calf serum). Any contaminating red cells are lysed, and viable cells are resuspended and counted. Thymocytes are plated (e.g., 96-well plates at a density of 2×10^5 cells/well) and a stimulating agent, such as Con A, IL-1 (e.g., IL-1α) or IL-2 is added to the well. The cells are incubated for 4 days at 37° C. On the fourth day, the cells are pulsed with tritiated thymidine and cell proliferation determined. […]
1521 on inhibition of murine thymocyte proliferation stimulated by Concanavalin A (ConA) and interleukin-I alpha (IL-1α). Thymuses were obtained from normal, female Balb/C mice. The thymuses were dissociated and plated into 96-well plates at a density of 2×10^5 cells/well. […] The cells were harvested and incorporated tritiated thymidine was determined in a liquid scintillation counter. […]

[2] = test system: VCAM in HUVEC cells; test: cell surface expression of VCAM in HUVEC; format: cell-based, human; details: human TNF-α 20 ng/ml, 20 hours; FIG. 11
Procedure: Drug inhibitory activity can also be measured by determining levels of vascular cell adhesion molecule (VCAM) in stimulated cells. Early passage human umbilical vein endothelial cells (HUVEC) (obtained from commercial suppliers such as Cell Systems, Inc. or Clonetics) are cultured in media (e.g., Hepes buffered media, Cell Systems) containing 10% fetal bovine serum, and supplemented with a stimulating agent, such as fibroblast growth factor (acidic FGF, Cell Systems, Inc.) or TNF. The cells are plated into wells of a microtiter plate (e.g., 5×10^4 per well) and allowed to incubate at 37° C. for 72 hrs. The resting cells are removed (e.g., 20-30 min treatment with 0.4% EDTA), washed in media (e.g., phosphate buffered saline plus 0.1% bovine serum albumin with 0.01% sodium azide) and labeled on ice with a monoclonal antibody ("first antibody") recognizing human VCAM (e.g., 1 μg of a murine monoclonal antibody recognizing human VCAM, Genzyme). After 60 min on ice, the cells are washed (preferably twice) with cold wash media and incubated with an antibody that recognizes the first antibody (e.g., 1 μg of goat anti-mouse IgG conjugated with phycoerythrin, CalTag, Inc.). After 30 min on ice, the cells are washed twice and analyzed on a flow cytometer (Coulter Elite®) at appropriate emission and excitation wavelengths (e.g., for phycoerytlrin use excitation at 488 nm and emission at 525 nm).
The cells were stimulated with human TNF-α (20 ng/ml) for 20 hours and then stained for immunofluorescence using a monoclonal antibody recognizing VCAM, followed by a goat anti-mouse antibody conjugated to phycoerythrin. The cells were analyzed for antibody binding using flow cytometry. […] 1521 and 1522 at the indicated drug concentrations.
This example was used to investigate inhibition of vascular cell adhesion molecule (VCAM) expression on HUVEC by inventive compound no. 2525. VCAM expression by endothelial cells is an early event in atherogenesis and multiple sclerosis, among other various autoimmune diseases. FIG. 17, a plot of percent surface expression versus concentration of compound no.

[3] = test system: human stromal cells; test: proliferation of human stromal cells stimulated with PDGF; format: cell-based; details: 50 ng/ml PDGF-BB
Procedure: Another assay for measuring activity of the inventive compounds involves determining PDGF (platelet derived growth factor) proliferative response using human-derived stromal cells. Human stromal cells are plated (e.g., about 2000 cells per well) in defined media (e.g., 69% McCoy's, 12.5% fetal calf serum, 12.5% horse serum, 1% antibiotics, 1% glutamine, 1% vitamin supplement, 0.8% essential amino acids, 1% sodium pyruvate, 1% sodium bicarbonate, 0.4% non-essential amino acids and 0.36% hydrocortisone). Two to three days later, the stromal cells are starved in serum-free media. Twenty four hours later, the cells are treated with a stimulating agent, such as PDGF-AA, PDGF-BB or basic FGF (fibroblast growth factor) with or without IL-1α or TNF, and tritiated thymidine. Cell proliferation is determined by liquid scintillation counting.
This example illustrates the ability of inventive compounds nos. […] This assay is a model for restenosis and treatment of atherosclerosis and coronary artery disease. Stromal cells were starved in serum-free media for one day and then stimulated with 50 ng/ml PDGF-BB. The drugs were added at the indicated concentrations one hour prior to PDGF stimulation. Tritiated thymidine was added for one day at the time of PDGF stimulation and the cells were harvested and counted by liquid scintillation counting 24 hours later. […]

With CON=C(C)CCCCn1c(=O)c2c(ncn2C)n(C)c1=O [Compound no. 1522] the “inhibition of thymocyte proliferation, ConA + IL-1α” value [1] was “inhibited thymocyte proliferation”, the “inhibition of cell surface expression of VCAM” value [2] was “inhibit cell surface expression of VCAM in HUVEC cells” and the “inhibition of proliferation of stromal cells stimulated with PDGF” value [3] was “strongly inhibit proliferation of human stromal cells”.
CC(CCCCn1c(=O)c2c(ncn2C)n(C)c1=O)=NO [Compound no. 1521] was tested, and the “inhibition of thymocyte proliferation, ConA + IL-1α” value [1] was “inhibited thymocyte proliferation in a dose-response manner”, the “inhibition of cell surface expression of VCAM” value [2] was “inhibit cell surface expression of VCAM in HUVEC cells” and the “inhibition of proliferation of stromal cells stimulated with PDGF” value [3] was “strongly inhibit proliferation of human stromal cells”.

Source: patent US5770595A, “Oxime substituted therapeutic compounds” (Cell Therapeutics, Inc., priority 1994, dated 1998)
